Data as given in patent US20180193336A1, “SPRAY DRY FORMULATIONS” (Pulmokine, Inc., priority 2013, published 2018).
“And” between values parts separate entries of the source, which are not always exact repeats. Equal entries are not always repeated. Where two headings read alike, the source gives them in different places. Marks after values point to notes of the source that are not given here.

What was measured:
[1] = Systemic blood pressure study in ambulatory MCT treated rats; format: in vivo, rat
Protocol: The effect of PK10453 (Structure 2) on systemic BP was studied in ambulatory MCT treated rats with DSI PAC40 transmitters implanted in the descending aorta. […] Blood pressure was recorded before each morning dose.

[2] = Body weights of treated rats; format: in vivo, rat; conditions: D4 and D8 groups; FIG. 19
[3] = system: PDGFAA stimulated AKT phosphorylation; experiment: In cell Western, PDGFAA stimulated AKT phosphorylation in human fetal lung fibroblasts; format: cell-based; conditions: for IC50: Fibroblast
Protocol: (§1) HLFs were maintained in subculture at no more than 6 passages in DMEM with 5% FBS and 4 mM Glutamax at 37° C., 5% CO2. HLFs were plated and grown to 70-80% confluence in 96 well plates then serum-starved for 48 hours. […] Antibodies were detected using IRDye 680LT goat anti-mouse IgG and IRDye 800 W goat α-rabbit IgG conjugated antibodies. After washing, the signal was quantified using an Odyssey Infrared Imaging System (LI-COR). Phosphoprotein signal (800 nm) was normalized to total protein signal (700 nm) acquired from each well and experimental duplicates on same plate were averaged and reported.

rat MCT+PN model [4] = experiment: Two-chamber plethysmography, PK10453 in rat MCT+PN model; format: in vivo; conditions: for MV (minute ventilation) / PEF (peak expiratory flow) / PIF (peak inspiratory flow) / SRaw (airway resistance) / TV (tidal volume) / f (breathing frequency): MCT+PN, mean
Protocol: Plethysmography was performed with an EMKA dual chamber plethysmograph and IOX software. Parameters measured included breathing frequency, tidal volume, minute ventilation, peak inspiratory and expiratory flow, and airway resistance (SRaw). Animals were acclimatized to the plethysmograph for three days prior to first data acquisition. Measurements were made prior to the first dose of drug and at the end of the study.

[5] = system: PDGFBB stimulated phosphorylation of ERK1 and ERK2; experiment: PDGFBB stimulated phosphorylation of ERK1 and ERK2 in human fetal lung fibroblasts; format: cell-based
Description: Data shown are mean±SEM. […] PK10453=structure 2; PK10571=structure 2a. Platelet derived growth factor receptor alpha=PDGFR-alpha=PDGFR-α=PDGF receptor alpha=PDGF alpha receptor. Platelet derived growth factor receptor beta=PDGFR-beta=PDGFRβ=PDGF receptor beta=PDGF beta receptor.

rat MCT+PN model [6] = experiment: RV pressure, PV loops and RV hypertrophy in rat MCT+PN model; format: in vivo; conditions: for RV systolic pressure: 14 days
Protocol: In a separate cohort of animals, the MCT+PN model was developed as described above, and PK10453 (Structure 2) was then administered for 4 or 8 min three times a day to the drug treated group. The vehicle control group underwent 4 min exposures three times a day. Pressure Volume (PV) loops were obtained with an admittance system (Scisense, Inc.) after 14 days of treatment, while rats were under general anesthesia with isoflurane and 100% FiO2. Also, or in the alternative, RV pressures were obtained in each group after 14 days of treatment. In a subset of each group, pressure Volume (PV) loops were obtained with an admittance system (high fidelity catheter FTE1918B, Scisense, Inc.) after 14 days of treatment. After induction of general anesthesia and intubation via tracheostomy, the rats were placed on a pressure controlled ventilator (TOPOVENT). General anesthesia consisted of isoflurane and 100% F1O2 with peak inspiratory pressure set at 18 cm, and PEEP 5 cm H2O. A left thoracotomy was performed with admittance catheter in the RV via the RV outflow tract.
At the end of the study, the heart and lungs were removed from ventilated animals under general anesthesia. Heparinized saline was infused under pressure through the main pulmonary artery. The right upper lobe was immediately tied off and placed in liquid nitrogen for Western blot and NanoPro 100 assay analysis. The heart was removed, and the RV free wall, interventricular septum and LV free wall dissected and weighed. Buffered formalin (10%) was infused under pressure both through the pulmonary artery and the trachea. Morphometric analysis was performed on H&E stained formalin fixed tissue sectioned at 8 μm. The media area and lumen area of pulmonary arterioles were measured with Image J software by a technician blinded to treatment group. Measurements were made on 20 pulmonary arterioles per section. The ratio of the lumen area to the total media area was determined. This ratio normalizes the variation in total pulmonary arteriole area. In addition, occlusive analysis was performed in the monocrotaline plus pneumonectomy study (specifically efficacy study 5) according to the method of Homma et al., “Involvement of RhoA/Rho kinase signaling in protection against monocrotaline-induced pulmonary hypertension in pneumonectomized rats by dehydroepiandrosterone.” Am J Physiol Lung Cell Mol Physiol. Vol. 295:L71-8 (2008). Briefly, pre-capillary arterioles were assigned grade 0 for no evidence of neointimal lesions, grade 1 for less than 50% luminal occlusion, and grade 2 for greater than 50% occlusion. Masson Trichrome stains were performed on lung sections from the MCT+PN model. […]

[7] = system: PDGFBB stimulated AKT phosphorylation; experiment: In cell Western, PDGFBB stimulated AKT phosphorylation in human fetal lung fibroblasts; format: cell-based; conditions: for IC50: Fibroblast
Protocol: as §1

[8] = 8 min inhalation three times a day, two weeks

Protocol for rat MCT model: At the end of the study RVSP pressure was measured; lung and heart fixed in formalin. For measurement of RVSP animals were sedated with isoflurane, intubated via a tracheostomy, and ventilated with a TOPOVENT pressure regulated ventilator (peak inspiratory pressure 18 cm H20, PEEP 5 cm). After sternotomy, a Scisense high fidelity catheter inserted via the RV apex.
At the end of the study, the heart and lungs were removed from ventilated animals under general anesthesia. Heparinized saline was infused under pressure through the main pulmonary artery. […] The heart was removed, and the RV free wall, interventricular septum and LV free wall dissected and weighed. Buffered formalin (10%) was infused under pressure both through the pulmonary artery and the trachea. Morphometric analysis was performed on H&E stained formalin fixed tissue sectioned at 8 μm. The media area and lumen area of pulmonary arterioles were measured with Image J software by a technician blinded to treatment group. Measurements were made on 20 pulmonary arterioles per section. The ratio of the lumen area to the total media area was determined. This ratio normalizes the variation in total pulmonary arteriole area. […] Briefly, pre-capillary arterioles were assigned grade 0 for no evidence of neointimal lesions, grade 1 for less than 50% luminal occlusion, and grade 2 for greater than 50% occlusion.

COc1cc(-c2cncc(N[C@@H](C)c3cccc(NC(=O)c4cncc(C)c4)c3)n2)ccc1O [PK10453, (S)—N-(3-(1-((6-(4-hydroxy-β-methoxyphenyl)pyrazin-2yl)amino)ethyl)phenyl)-5-methylnicotinamide]
systolic BP ([1]; MCT rats, day seven of treatment, 4 min exposure 3×/d): 131±10 mmHg
effect on systemic BP ([1]; rat MCT model): did not have an adverse effect
body weight compared to vehicle [2]: trend to a slower rate of decline
IC50 for PDGFAA stimulated phosphorylation of AKT, PK10453 compared with imatinib [3]: not significantly different
IC50 ([3]; legend of FIG. 2 PANEL A, read-out: IC50 for PDGFAA stimulation of pAKT(S473)): 300 to 600 nM
IC50 ([3]; legend of FIG. 2 PANEL B, read-out: IC50 for PDGFAA stimulation of pAKT(T308)): 300 to 600 nM
MV (minute ventilation) (rat MCT+PN model [4]; D4, Day 1): 223.24 mL/min
PEF (peak expiratory flow) (rat MCT+PN model [4]; D4, Day 1): 11.04
PIF (peak inspiratory flow) (rat MCT+PN model [4]; D4, Day 1): 9.82
SRaw (airway resistance) (rat MCT+PN model [4]; D4, Day 1): 39.73
TV (tidal volume) (rat MCT+PN model [4]; D4, Day 1): 1.00 mL
f (breathing frequency) (rat MCT+PN model [4]; D4, Day 1): 224.68 breaths per minute
MV (minute ventilation) (rat MCT+PN model [4]; D4, Day 15): 176.12§ mL/min
PEF (peak expiratory flow) (rat MCT+PN model [4]; D4, Day 15): 9.33*
PIF (peak inspiratory flow) (rat MCT+PN model [4]; D4, Day 15): 7.82*
SRaw (airway resistance) (rat MCT+PN model [4]; D4, Day 15): 33.09
TV (tidal volume) (rat MCT+PN model [4]; D4, Day 15): 0.85 mL
f (breathing frequency) (rat MCT+PN model [4]; D4, Day 15): 217.12 breaths per minute
MV (minute ventilation) (rat MCT+PN model [4]; D8, Day 1): 174.68 mL/min
PEF (peak expiratory flow) (rat MCT+PN model [4]; D8, Day 1): 9.43
PIF (peak inspiratory flow) (rat MCT+PN model [4]; D8, Day 1): 8.54
SRaw (airway resistance) (rat MCT+PN model [4]; D8, Day 1): 36.01
TV (tidal volume) (rat MCT+PN model [4]; D8, Day 1): 0.74 mL
f (breathing frequency) (rat MCT+PN model [4]; D8, Day 1): 259.13 breaths per minute
MV (minute ventilation) (rat MCT+PN model [4]; D8, Day 15): 128.49 mL/min
PEF (peak expiratory flow) (rat MCT+PN model [4]; D8, Day 15): 6.64
PIF (peak inspiratory flow) (rat MCT+PN model [4]; D8, Day 15): 6.06
SRaw (airway resistance) (rat MCT+PN model [4]; D8, Day 15): 49.26
TV (tidal volume) (rat MCT+PN model [4]; D8, Day 15): 0.63 mL
f (breathing frequency) (rat MCT+PN model [4]; D8, Day 15): 232.11 breaths per minute
effect on lung function (rat MCT+PN model [4]; inhaled, 2-wk course): did not adversely affect lung function
decrease of PDGF BB stimulated ppERK1 and ppERK2 relative to imatinib ([5]; 1 uM and 10 uM): more effective
decrease of PDGFBB stimulated ppERK1 formation ([5]; 1 uM, PDGF BB 10 ng/ml): effective
ratio diphosphorylated ERK2 to total ERK2 (ppERK2/ERK2) ([5]; PDGFAA or PDGFBB stimulation (10 ng/ml), 1 uM and 10 uM): significantly decreased
ratio diphosphorylated ERK1 to total ERK1 (ppERK1/ERK1) ([5]; PDGFAA or PDGFBB stimulation, 1 μM and 10 μM): significantly decreased
(RV+IVS)/LV ratio (rat MCT+PN model [6]; D4): 0.62±0.04
RV systolic pressure (rat MCT+PN model [6]; D4, 4 min three times a day): 40.4±2.7 mm Hg and 40.4+2.7 mm Hg
(RV+IVS)/LV ratio (rat MCT+PN model [6]; D8): 0.68±0.05
RV systolic pressure (rat MCT+PN model [6]; D8, 8 min three times a day): 43±3.0 mm Hg and 43.0+3.0 mm Hg
end diastolic volume, ejection fraction, cardiac output, stroke work, difference between groups (rat MCT model): no significant differences
Lumen/Media ratio (rat MCT model; 8 min exposures): 0.94±0.08
End systolic volume (rat MCT model; [8]): 99.5 µL
RV end systolic pressure (rat MCT model; [8]): 36.3±2.6 mm Hg
IC50 ([7]; human fetal lung fibroblasts, 10 ng/ml PDGFBB, read-out: IC50 for PDGFBB stimulated AKT phosphorylation at Ser473): 130 nM
IC50 ([7]; human fetal lung fibroblasts, 10 ng/ml PDGFBB, read-out: IC50 for PDGFBB stimulated AKT phosphorylation at Thr308): 430 nM
IC50 ([7]; human fetal lung fibroblasts, legend of FIG. 2 PANEL C, read-out: IC50 for PDGFBB stimulation of pAKT(Ser473)): 130 nM
IC50 ([7]; Homo sapiens, FIG. 26, each concentration in duplicate, read-out: IC50, PDGF BB stimulated pAKT in human lung fibroblasts): 150 nM
IC50 for inhibiting PDGFBB stimulated AKT phosphorylation relative to imatinib ([7]; fetal human lung fibroblasts, FIG. 18): lower IC50 concentration compared to imatinib
